Columns and labels:
[1] = species: Rattus norvegicus; experiment: Anti-angiogenic activity as inhibition of microvessel growth in rat aortic ring cultured in a fibrin clot; format: functional; settings: Aorta
[2] = Compound was evaluated for ocular toxicity assessed after oral dosing at 40 mg/kg b.i.d. in male Wistar rat; No; format: organism-based, Eye; set-up: dose 40 mg/kg, route oral; settings: in vivo
[3] = Compound was evaluated for ocular toxicity assessed after oral dosing at 40 mg/kg b.i.d. in male Wistar rat; Yes; format: organism-based, Eye; set-up: dose 40 mg/kg, route oral; settings: in vivo
[4] = test system: 3LL cell line; experiment: In vivo anti-tumor and anti-metastatic activity was measured after oral dosing 15 mg/kg b.i.d. to B6D2F1 mice bearing metastatic 3LL Lewis lung tumor; format: functional; settings: Mus musculus
[5] = Compound was evaluated for ocular toxicity assessed after oral dosing at 40 mg/kg b.i.d. in male Wistar rat; Very weak; format: organism-based, Eye; set-up: dose 40 mg/kg, route oral; settings: in vivo
[6] = test system: 3LL cell line; experiment: In vivo anti-tumor and anti-metastatic activity was measured after oral dosing b.i.d. to B6D2F1 mice bearing metastatic 3LL Lewis lung tumor; format: functional, Mus musculus

SMILES | IC50 [1] | Eye toxicity [2] | further results
FC(F)(F)c1cccc(N2CCN(c3ccc(-c4ncns4)nn3)CC2)c1 | 70 nM | No toxicity | –
CNc1nsc(-c2ccc(N3CCN(c4cccc(C(F)(F)F)c4)CC3)nn2)n1 | 3 nM | No toxicity | –
Cc1nsc(-c2nccc(N3CCN(c4cccc(C(F)(F)F)c4)CC3)n2)n1 | > 100 nM | No toxicity | –
Cc1nsc(-c2ccnc(N3CCN(c4cccc(C(F)(F)F)c4)CC3)n2)n1 | > 100 nM | – | –
CCc1nsc(-c2ccc(N3CCN(c4cccc(C(F)(F)F)c4)CC3)nn2)n1 | 8 nM | No toxicity | –
Cc1nsc(-c2ccc(N3CCN(c4cccc(C(F)(F)F)c4)CC3)nn2)n1 | 0.3 nM | – | Eye toxicity [3]: Yes
Cc1nsc(-c2ccc(N3CCN(c4cc(Cl)cc(Cl)c4)CC3)nn2)n1 | < 0.1 nM | – | Eye toxicity [3]: Yes
Cc1nsc(-c2ccc(N3CCN(c4ccccc4C(F)(F)F)CC3)nn2)n1 | 0.2 nM | – | Eye toxicity [3]: Yes
Cc1nsc(-c2ccc(N3CCN(c4cccc(C(F)(F)F)c4)CC3)cc2)n1 | 10 nM | No toxicity | –
COc1cccc(N2CCN(c3ccc(-c4nc(C)ns4)nn3)CC2)c1 | 7 nM | – | –
Cc1nsc(-c2ccc(N3CCN(c4ccc(C(F)(F)F)cc4)CC3)nn2)n1 | 12 nM | – | –
Cc1nsc(-c2ccc(N3CCN(c4cccc([N+](=O)[O-])c4)CC3)nn2)n1 | 3 nM | – | Eye toxicity [3]: Yes
Cc1nsc(-c2ccc(N3CCN(c4cccc(Cl)c4)CC3)nn2)n1 | 0.6 nM | – | Eye toxicity [3]: Yes
Cc1nsc(-c2ccc(N3CCN(c4cccc(C#N)c4)CC3)nn2)n1 | 3 nM | – | –
Cc1nsc(-c2ccc(N3CCN(c4cccc(N)c4)CC3)nn2)n1 | > 100 nM | – | –
CN(C)c1nsc(-c2ccc(N3CCC(N4CCN(c5cccc(C(F)(F)F)c5)CC4)CC3)nn2)n1 | < 1 nM | – | inhibition in vivo at 15 mg/kg [4]: 25%; Eye toxicity [5]: Very weak
CN(C)c1nsc(-c2ccc(N3CCN(c4cccc(C(F)(F)F)c4)CC3)nn2)n1 | – | No toxicity | inhibition in vivo at 15 mg/kg [4]: 39%
FC(F)(F)c1cccc(NC2CCN(c3ccc(-c4ncns4)nn3)CC2)c1 | 7 nM | No toxicity | inhibition in vivo at 15 mg/kg [4]: 42%
Cc1nsc(-c2ccc(N3CCN(c4cc(C(F)(F)F)cc(C(F)(F)F)c4)CC3)nn2)n1 | < 0.1 nM | – | Eye toxicity [3]: Yes
Cc1nsc(-c2ccc(N3CCN(c4cccc(F)c4)CC3)nn2)n1 | 6 nM | – | –
Cc1nsc(-c2ccc(N3CCN(c4cccc(C(F)(F)F)c4)CC3)nc2)n1 | 5 nM | No toxicity | –
Nc1nsc(-c2ccc(N3CCN(c4cccc(C(F)(F)F)c4)CC3)nn2)n1 | 20 nM | No toxicity | –
CN(C)c1nsc(-c2ccc(N3CCN(c4ccccc4)CC3)nn2)n1 | 0.1 nM | No toxicity | inhibition in vivo at 15 mg/kg [4]: 13%
FC(F)(F)c1cc(N2CCN(c3ccc(-c4ncns4)nn3)CC2)cc(C(F)(F)F)c1 | < 1 nM | No toxicity | Inhibition [6]: 24%
FC(F)(F)c1cccc(N2CCN(C3CCN(c4ccc(-c5ncns5)nn4)CC3)CC2)c1 | 0.3 nM | No toxicity | inhibition in vivo at 15 mg/kg [4]: 54%

Source: ChEMBL document CHEMBL1135068, “Synthesis and anti-angiogenic activity of 6-(1,2,4-thiadiazol-5-yl)-3-amino pyridazine derivatives” (Bioorg Med Chem Lett, 2002)
